Measured values: article PMC5291709, “Structure of the active form of human origin recognition complex and its ATPase motor module” (eLife, 2017)
Residue numbers refer to the chain shown, from its start.

How the values were obtained:
HsORC1-5 = molecular target: T1, HsORC1-5 (Homo sapiens, UniProt O43913+O43929+Q13415, Q13415:R720Q); assay: radiolabelled ATPase assay, TLC; type: biochemical; details: 50 mM Hepes-NaOH pH 7.5, 200 mM KCl, 5 mM MgCl2, 5 mM DTT, 37 C, 12.5-200 uM ATP, 10 uM complex; [gamma-32P]ATP tracer; ORC1/4 interface; Meier-Gorlin Syndrome mutant
T1 construct: gene ORC1; heteropentamer without ORC6; Sf9 insect cells; with Origin recognition complex subunit 5; Origin recognition complex subunit 2; Origin recognition complex subunit 3

[1] = molecular target: T2, HsORC motor module (HsORC1/4/5) (Homo sapiens, UniProt O43913+O43929+Q13415, Q13415:R720Q); assay: radiolabelled ATPase assay, TLC; type: biochemical; details: 50 mM Hepes-NaOH pH 7.5, 200 mM KCl, 5 mM MgCl2, 5 mM DTT, 37 C, 12.5-200 uM ATP, 10 uM complex; [gamma-32P]ATP tracer; ORC1/4 interface; Meier-Gorlin Syndrome mutant (sensor-2 trigger)
T2 construct: gene ORC1; ORC1 471-861 (BAH domain removed), ORC4 full-length 1-436, ORC5 1-284 (WHD removed); Sf9 insect cells, two-Strep-SumoStar tag on ORC1 cleaved; heterotrimer
T2 sequence (Q13415 471-861 R720Q): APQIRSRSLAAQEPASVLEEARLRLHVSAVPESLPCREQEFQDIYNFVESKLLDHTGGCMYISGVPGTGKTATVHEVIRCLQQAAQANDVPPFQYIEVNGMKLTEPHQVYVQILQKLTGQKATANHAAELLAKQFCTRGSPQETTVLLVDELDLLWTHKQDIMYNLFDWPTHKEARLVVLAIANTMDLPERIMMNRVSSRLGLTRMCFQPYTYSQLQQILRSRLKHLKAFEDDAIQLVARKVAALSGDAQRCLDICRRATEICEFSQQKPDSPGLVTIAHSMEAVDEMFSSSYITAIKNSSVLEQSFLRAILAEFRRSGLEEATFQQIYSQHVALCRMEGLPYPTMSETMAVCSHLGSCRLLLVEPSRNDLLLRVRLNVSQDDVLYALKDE
T2 sequence (O43929 1-436): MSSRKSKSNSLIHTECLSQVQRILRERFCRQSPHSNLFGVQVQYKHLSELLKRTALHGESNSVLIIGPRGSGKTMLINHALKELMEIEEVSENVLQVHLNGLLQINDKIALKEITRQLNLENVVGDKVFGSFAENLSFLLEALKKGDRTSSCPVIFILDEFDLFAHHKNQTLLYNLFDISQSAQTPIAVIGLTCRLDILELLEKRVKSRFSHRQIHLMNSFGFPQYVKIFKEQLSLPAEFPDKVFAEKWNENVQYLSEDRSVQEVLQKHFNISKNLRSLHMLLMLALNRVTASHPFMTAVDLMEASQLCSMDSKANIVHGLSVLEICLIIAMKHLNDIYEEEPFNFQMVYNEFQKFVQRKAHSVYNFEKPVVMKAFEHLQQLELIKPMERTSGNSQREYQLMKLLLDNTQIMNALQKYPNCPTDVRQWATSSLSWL
T2 sequence (O43913 1-284): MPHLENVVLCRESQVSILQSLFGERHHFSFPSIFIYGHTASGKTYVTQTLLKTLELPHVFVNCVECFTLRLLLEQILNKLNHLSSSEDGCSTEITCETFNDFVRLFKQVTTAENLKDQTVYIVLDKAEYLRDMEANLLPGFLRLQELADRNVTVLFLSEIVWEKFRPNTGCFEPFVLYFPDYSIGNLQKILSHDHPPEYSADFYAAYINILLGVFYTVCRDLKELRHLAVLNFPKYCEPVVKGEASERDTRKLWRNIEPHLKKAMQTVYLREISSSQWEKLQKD

[2] = molecular target: T3, HsORC motor module (HsORC1/4/5) (Homo sapiens, UniProt O43913+O43929+Q13415); assay: X-ray crystal structure, […] A; type: binding; details: unhydrolysed ATP at the ORC1/ORC4 and ORC4/ORC5 interfaces and on ORC5; Mg2+
T3 construct: gene ORC1; ORC1 471-861 (BAH domain removed), ORC4 full-length 1-436, ORC5 1-284 (WHD removed); Sf9 insect cells, two-Strep-SumoStar tag on ORC1 cleaved; heterotrimer
T3 sequence (Q13415 471-861): T2 sequence (Q13415 471-861 R720Q) with Q250R
T3 sequence (O43929 1-436): T2 sequence (O43929 1-436)
T3 sequence (O43913 1-284): T2 sequence (O43913 1-284)

[3] = molecular target: T4, HsORC motor module (HsORC1/4/5) (Homo sapiens, UniProt O43913+O43929+Q13415, O43929:Y174C); assay: radiolabelled ATPase assay, TLC, Michaelis-Menten fit; type: biochemical; details: 50 mM Hepes-NaOH pH 7.5, 200 mM KCl, 5 mM MgCl2, 5 mM DTT, 37 C, 12.5-200 uM ATP, 10 uM complex; [gamma-32P]ATP tracer; ORC1/4 interface; Meier-Gorlin Syndrome mutant
T4 construct: gene ORC1; ORC1 471-861 (BAH domain removed), ORC4 full-length 1-436, ORC5 1-284 (WHD removed); Sf9 insect cells, two-Strep-SumoStar tag on ORC1 cleaved; heterotrimer
T4 sequence (Q13415 471-861): T2 sequence (Q13415 471-861 R720Q) with Q250R
T4 sequence (O43929 1-436 Y174C): T2 sequence (O43929 1-436) with Y174C
T4 sequence (O43913 1-284): T2 sequence (O43913 1-284)

[4] = molecular target: T5, HsORC motor module (HsORC1/4/5) (Homo sapiens, UniProt O43913+O43929+Q13415, O43929:D159A/Q13415:D620A); assay: radiolabelled ATPase assay, TLC; type: biochemical; details: 50 mM Hepes-NaOH pH 7.5, 200 mM KCl, 5 mM MgCl2, 5 mM DTT, 37 C, 12.5-200 uM ATP, 10 uM complex; [gamma-32P]ATP tracer; ORC1/4 interface; double Walker-B mutant
T5 construct: gene ORC1; ORC1 471-861 (BAH domain removed), ORC4 full-length 1-436, ORC5 1-284 (WHD removed); Sf9 insect cells, two-Strep-SumoStar tag on ORC1 cleaved; heterotrimer
T5 sequence (Q13415 471-861 D620A): T2 sequence (Q13415 471-861 R720Q) with D150A, Q250R
T5 sequence (O43929 1-436 D159A): T2 sequence (O43929 1-436) with D159A
T5 sequence (O43913 1-284): T2 sequence (O43913 1-284)

[5] = molecular target: T6, HsORC motor module (HsORC1/4/5) (Homo sapiens, UniProt O43913+O43929+Q13415, Q13415:D620A); assay: radiolabelled ATPase assay, TLC; type: biochemical; details: 50 mM Hepes-NaOH pH 7.5, 200 mM KCl, 5 mM MgCl2, 5 mM DTT, 37 C, 12.5-200 uM ATP, 10 uM complex; [gamma-32P]ATP tracer; ORC1/4 interface; Walker-B mutant
T6 construct: gene ORC1; ORC1 471-861 (BAH domain removed), ORC4 full-length 1-436, ORC5 1-284 (WHD removed); Sf9 insect cells, two-Strep-SumoStar tag on ORC1 cleaved; heterotrimer
T6 sequence (Q13415 471-861 D620A): T2 sequence (Q13415 471-861 R720Q) with D150A, Q250R
T6 sequence (O43929 1-436): T2 sequence (O43929 1-436)
T6 sequence (O43913 1-284): T2 sequence (O43913 1-284)

T1 sequence (O43913 whole entry, one chain of several): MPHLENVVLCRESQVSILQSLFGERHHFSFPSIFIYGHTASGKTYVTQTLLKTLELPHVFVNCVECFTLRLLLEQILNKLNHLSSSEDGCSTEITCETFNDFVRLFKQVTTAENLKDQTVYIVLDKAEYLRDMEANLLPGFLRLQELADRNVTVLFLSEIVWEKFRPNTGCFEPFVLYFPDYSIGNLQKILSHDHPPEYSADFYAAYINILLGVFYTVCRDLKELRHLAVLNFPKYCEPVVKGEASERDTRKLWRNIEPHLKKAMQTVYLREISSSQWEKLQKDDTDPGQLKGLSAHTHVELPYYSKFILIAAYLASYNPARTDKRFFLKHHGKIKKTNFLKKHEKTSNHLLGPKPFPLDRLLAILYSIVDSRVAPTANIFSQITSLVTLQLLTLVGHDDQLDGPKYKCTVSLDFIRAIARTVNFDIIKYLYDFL
T1 sequence (Q13416 whole entry partner, one chain of several): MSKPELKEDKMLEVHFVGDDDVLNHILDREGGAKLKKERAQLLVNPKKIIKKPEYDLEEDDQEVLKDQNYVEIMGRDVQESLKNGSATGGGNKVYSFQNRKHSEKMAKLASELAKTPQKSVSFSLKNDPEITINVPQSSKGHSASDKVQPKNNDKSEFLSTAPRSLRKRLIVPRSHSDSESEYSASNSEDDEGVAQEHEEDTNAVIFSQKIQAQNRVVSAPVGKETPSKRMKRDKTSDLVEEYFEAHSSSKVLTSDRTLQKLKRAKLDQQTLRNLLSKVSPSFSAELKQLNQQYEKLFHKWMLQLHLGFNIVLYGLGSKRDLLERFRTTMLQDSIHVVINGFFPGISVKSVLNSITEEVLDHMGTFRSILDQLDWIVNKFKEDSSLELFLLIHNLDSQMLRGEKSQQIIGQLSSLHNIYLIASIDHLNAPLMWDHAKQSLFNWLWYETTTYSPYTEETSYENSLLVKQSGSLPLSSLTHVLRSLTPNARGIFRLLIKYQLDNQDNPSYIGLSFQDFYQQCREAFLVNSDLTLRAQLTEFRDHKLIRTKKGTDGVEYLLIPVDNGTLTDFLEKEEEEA
T1 sequence (Q9UBD5 whole entry partner, one chain of several): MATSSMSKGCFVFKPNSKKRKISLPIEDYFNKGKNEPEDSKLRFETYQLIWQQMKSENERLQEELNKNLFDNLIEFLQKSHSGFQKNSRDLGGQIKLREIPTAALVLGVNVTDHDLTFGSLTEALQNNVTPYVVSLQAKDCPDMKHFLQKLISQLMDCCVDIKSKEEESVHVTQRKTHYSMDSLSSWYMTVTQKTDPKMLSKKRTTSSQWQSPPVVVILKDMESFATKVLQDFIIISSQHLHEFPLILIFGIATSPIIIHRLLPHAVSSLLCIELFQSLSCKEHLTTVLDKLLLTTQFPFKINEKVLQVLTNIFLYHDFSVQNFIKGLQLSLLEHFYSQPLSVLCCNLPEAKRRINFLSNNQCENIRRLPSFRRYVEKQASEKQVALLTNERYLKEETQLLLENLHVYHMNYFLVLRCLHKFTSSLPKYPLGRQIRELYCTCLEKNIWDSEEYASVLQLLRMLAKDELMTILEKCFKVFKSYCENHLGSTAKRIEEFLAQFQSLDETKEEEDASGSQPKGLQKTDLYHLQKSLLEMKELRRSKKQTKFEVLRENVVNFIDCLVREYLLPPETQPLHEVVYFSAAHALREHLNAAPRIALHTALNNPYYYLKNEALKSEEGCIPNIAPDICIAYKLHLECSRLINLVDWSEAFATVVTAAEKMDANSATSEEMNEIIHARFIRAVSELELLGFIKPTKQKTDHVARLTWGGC

With `Nc1ncnc2c1ncn2[C@@H]1O[C@H](COP(=O)(O)OP(=O)(O)OP(=O)(O)O)[C@@H](O)[C@H]1O` [ATP] the “radiolabelled ATPase assay, TLC” value (HsORC1-5) was “the ORC1 MGS mutation R720Q all show very little activity”, the “radiolabelled ATPase assay, TLC” value [1] was “ORC1-R720Q abolished ATPase activity of the motor module” and the “X-ray crystal structure, 3.4 A” value [2] was “The HsORC motor module crystallized with ATP, and the nucleotides can be clearly seen”. The ATPase activity [3] was “renders the motor module hyperactive for ATPase activity”, the “radiolabelled ATPase assay, TLC” value [4] was “A double mutant of the Walker-B motif of both ORC1 and ORC4 also abolished activity” and the “radiolabelled ATPase assay, TLC” value [5] was “Disrupting the ORC1 Walker-B motif (ORC1 D620A) effectively abolished ATPase activity”.
